Data as given in patent publication US8460669B2, “Compositions and methods for identifying response targets and treating flavivirus infection responses” (Academia Sinica, priority 2005, dated 2013).

Tests used:
Conditions in all cases: sugar 1 mg/ml
[1] = target: T1, Langerin (Homo sapiens, UniProt Q9UJ71); assay: Sugar competition EIA, Fc.Langerin binding to GLPS-F3
T1 construct: The extracellular domains of lectin receptors, TREMs and TLTs were cloned by the reverse-transcriptase polymerase chain reaction (RT-PCR); made in house; host or cells: 293-F (FreeStyle 293) cells
T1 sequence (Q9UJ71 65-328 limits assumed): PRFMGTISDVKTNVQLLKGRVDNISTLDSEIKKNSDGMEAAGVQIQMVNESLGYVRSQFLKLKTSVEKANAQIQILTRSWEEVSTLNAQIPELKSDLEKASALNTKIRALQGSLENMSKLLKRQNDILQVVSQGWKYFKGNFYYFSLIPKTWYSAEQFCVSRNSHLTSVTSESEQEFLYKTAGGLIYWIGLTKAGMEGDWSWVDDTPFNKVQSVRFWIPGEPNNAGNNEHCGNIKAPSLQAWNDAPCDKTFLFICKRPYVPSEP

[2] = target: T2, CLEC-2 (Homo sapiens, UniProt Q9P126); assay: Sugar competition EIA, Fc.CLEC-2 binding to GLPS-F3
T2 construct: The extracellular domains of lectin receptors, TREMs and TLTs were cloned by the reverse-transcriptase polymerase chain reaction (RT-PCR); made in house; host or cells: 293-F (FreeStyle 293) cells
T2 sequence (Q9P126 55-229 limits assumed): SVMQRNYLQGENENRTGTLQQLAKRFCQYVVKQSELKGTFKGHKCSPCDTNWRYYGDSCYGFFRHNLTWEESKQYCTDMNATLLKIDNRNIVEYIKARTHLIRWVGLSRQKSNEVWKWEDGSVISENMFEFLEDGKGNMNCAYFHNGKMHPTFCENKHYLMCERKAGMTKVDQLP
Method: (§1) The interaction between GLPS-F3 and receptor.Fc was then tested. Unbiotinylated GLPS-F3 was immobilized at 100 ng/well as described above, and 100 μL receptor.Fc fusion protein (1 μg/ml in 2 mM MgCl2/2 mM CaCl2/1% BSA/TBST) was added into each well and incubated for 1 hour at room temperature. After washing with TBST, wells were incubated with peroxidase-conjugated goat anti-human IgG Ab (1:5000 dilution, Jackson ImmunoResearch Laboratories) in blocking buffer at room temperature for 30 min. Wells were incubated with 100 μL TMB substrate for 15 min after TBST washing and read at 450 nm in a Fusion plate reader (Perkin Elmer). The results were normalized with respect to Fc.Dectin-1 binding (Dectin-1 is a known lectin receptor that binds to β-1,3-glucan which is the backbone found in GLPS-F3). FIG. 6B depicts in graphical form the affinity of each receptor for GLPS-F3 relative to Dectin-1. […] There was also weaker but positive GLPS-F3 binding ability (25-50% binding intensity compared to Fc.dectin-1) found in Fc.NKG2D, Fc.MINCLE, Fc.mKCR, DCAL1.Fc, DEC205.Fc, Endo180.Fc and NKp30(NCR3).Fc.
(§2) To understand the interaction of GLPS-F3 with specific innate immunity receptors, the polysaccharides mannan and β-glucan and the monosaccharides D-mannose (Man), D-glucose (Glc), N-acetyl-glucosamine (GlcNAc), D-galactose (Gal), N-acetyl-galactosamine (GalNAc), L-fucose (Fuc) and sialic acid, were used in a competition assay. […] The assays were carried out as in Example 9, with the addition of 1 mg/ml of each polysaccharide or monosaccharide.

[3] = target: T3, MMR.Fc (Homo sapiens, UniProt P22897); assay: Sugar competition EIA, MMR.Fc binding to GLPS-F3
T3 construct: The extracellular domains of lectin receptors, TREMs and TLTs were cloned by the reverse-transcriptase polymerase chain reaction (RT-PCR); made in house; host or cells: 293-F (FreeStyle 293) cells
T3 sequence (P22897 19-1389 limits assumed): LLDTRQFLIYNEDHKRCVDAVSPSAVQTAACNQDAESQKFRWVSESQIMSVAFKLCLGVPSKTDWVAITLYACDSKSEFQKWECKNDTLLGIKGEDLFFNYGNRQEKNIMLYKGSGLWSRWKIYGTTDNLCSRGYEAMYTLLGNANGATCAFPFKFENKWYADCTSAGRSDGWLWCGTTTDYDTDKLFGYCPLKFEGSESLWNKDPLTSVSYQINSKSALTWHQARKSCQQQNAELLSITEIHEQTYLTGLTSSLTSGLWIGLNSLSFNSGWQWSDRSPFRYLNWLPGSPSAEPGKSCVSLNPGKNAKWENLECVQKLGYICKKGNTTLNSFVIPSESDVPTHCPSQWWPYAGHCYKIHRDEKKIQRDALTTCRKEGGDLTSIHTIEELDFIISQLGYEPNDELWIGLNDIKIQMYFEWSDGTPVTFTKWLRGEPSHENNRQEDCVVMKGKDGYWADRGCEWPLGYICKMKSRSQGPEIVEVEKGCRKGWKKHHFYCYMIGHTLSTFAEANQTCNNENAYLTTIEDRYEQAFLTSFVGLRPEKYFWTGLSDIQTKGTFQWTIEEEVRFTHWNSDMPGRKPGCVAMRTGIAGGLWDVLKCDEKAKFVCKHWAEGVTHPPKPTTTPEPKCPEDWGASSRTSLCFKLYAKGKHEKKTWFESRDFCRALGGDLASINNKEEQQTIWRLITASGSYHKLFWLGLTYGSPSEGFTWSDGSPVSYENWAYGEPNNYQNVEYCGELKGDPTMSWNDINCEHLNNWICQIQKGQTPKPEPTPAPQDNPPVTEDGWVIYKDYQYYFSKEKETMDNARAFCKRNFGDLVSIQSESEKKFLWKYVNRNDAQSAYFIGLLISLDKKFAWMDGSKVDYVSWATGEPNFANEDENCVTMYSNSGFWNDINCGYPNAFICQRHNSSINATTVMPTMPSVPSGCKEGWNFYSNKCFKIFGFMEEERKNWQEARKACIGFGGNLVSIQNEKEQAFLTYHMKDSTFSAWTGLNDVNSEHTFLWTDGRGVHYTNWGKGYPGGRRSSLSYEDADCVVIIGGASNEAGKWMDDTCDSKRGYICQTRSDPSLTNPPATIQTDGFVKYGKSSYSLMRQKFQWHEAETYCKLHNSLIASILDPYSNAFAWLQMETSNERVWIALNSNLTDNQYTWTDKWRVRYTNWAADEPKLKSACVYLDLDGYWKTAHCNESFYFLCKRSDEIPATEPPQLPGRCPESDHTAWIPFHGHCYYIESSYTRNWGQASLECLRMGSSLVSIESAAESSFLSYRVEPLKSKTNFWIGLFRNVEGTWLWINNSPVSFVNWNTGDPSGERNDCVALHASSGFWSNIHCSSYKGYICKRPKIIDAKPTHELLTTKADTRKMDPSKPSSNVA

[4] = target: T4, CLEC-6 (Homo sapiens, UniProt Q8WXI8); assay: Sugar competition EIA, Fc.CLEC-6 binding to GLPS-F3
T4 construct: The extracellular domains of lectin receptors, TREMs and TLTs were cloned by the reverse-transcriptase polymerase chain reaction (RT-PCR); made in house; host or cells: 293-F (FreeStyle 293) cells
T4 sequence (Q8WXI8 39-215 limits assumed): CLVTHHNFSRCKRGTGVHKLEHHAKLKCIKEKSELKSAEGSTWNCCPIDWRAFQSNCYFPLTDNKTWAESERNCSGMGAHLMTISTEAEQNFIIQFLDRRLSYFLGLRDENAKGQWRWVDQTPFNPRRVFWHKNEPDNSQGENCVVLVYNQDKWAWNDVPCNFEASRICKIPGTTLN
Method: as §1, §2

[5] = target: T5, DC-SIGN (Homo sapiens, UniProt Q9NNX6); assay: Sugar competition EIA, Fc.DC-SIGN binding to GLPS-F3
T5 construct: The extracellular domains of lectin receptors, TREMs and TLTs were cloned by the reverse-transcriptase polymerase chain reaction (RT-PCR); made in house; host or cells: 293-F (FreeStyle 293) cells
T5 sequence (Q9NNX6 59-404 limits assumed): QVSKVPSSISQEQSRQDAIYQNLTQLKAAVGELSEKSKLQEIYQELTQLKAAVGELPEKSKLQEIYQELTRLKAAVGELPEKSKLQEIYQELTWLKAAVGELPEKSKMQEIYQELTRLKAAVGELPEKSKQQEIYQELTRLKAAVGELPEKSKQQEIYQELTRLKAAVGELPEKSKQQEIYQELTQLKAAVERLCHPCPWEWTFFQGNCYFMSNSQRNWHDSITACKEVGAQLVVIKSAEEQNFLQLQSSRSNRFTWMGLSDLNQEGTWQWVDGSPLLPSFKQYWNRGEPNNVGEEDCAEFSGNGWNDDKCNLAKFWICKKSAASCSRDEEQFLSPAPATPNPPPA

[6] = target: T6, TLR4.Fc (Homo sapiens, UniProt O00206); assay: Sugar competition EIA, TLR4.Fc binding to GLPS-F3
T6 construct: The extracellular domains of several innate immunity receptors from immune cells were cloned by reverse-transcription polymerase chain reaction (RT-PCR); made in house; host or cells: 293-F (FreeStyle 293) cells
T6 sequence (O00206 24-631 limits assumed): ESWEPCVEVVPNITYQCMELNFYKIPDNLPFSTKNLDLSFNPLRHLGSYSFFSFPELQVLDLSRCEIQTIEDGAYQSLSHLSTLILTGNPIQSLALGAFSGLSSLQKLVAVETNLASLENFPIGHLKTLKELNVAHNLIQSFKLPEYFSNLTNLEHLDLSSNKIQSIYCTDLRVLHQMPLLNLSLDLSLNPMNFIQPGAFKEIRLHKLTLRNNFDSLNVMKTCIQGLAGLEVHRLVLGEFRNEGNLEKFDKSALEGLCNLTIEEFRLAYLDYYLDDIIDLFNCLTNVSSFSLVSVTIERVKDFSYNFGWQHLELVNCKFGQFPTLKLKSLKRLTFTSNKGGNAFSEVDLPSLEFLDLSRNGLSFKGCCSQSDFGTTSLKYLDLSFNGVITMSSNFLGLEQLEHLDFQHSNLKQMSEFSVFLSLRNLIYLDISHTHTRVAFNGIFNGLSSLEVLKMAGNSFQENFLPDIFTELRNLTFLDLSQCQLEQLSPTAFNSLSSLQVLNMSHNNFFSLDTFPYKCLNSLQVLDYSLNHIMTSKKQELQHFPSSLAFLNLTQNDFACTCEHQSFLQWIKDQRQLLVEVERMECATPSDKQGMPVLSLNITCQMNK

Percentage of binding of Langerin Fc fusion to GLPS-F3 relative to binding in absence of sugar competitor [1]	Percentage of binding of CLEC-2 Fc fusion to GLPS-F3 relative to binding in absence of sugar competitor [2]	Percentage of binding of MMR.Fc to GLPS-F3 relative to binding in absence of sugar competitor [3]	Percentage of binding of CLEC-6 Fc fusion to GLPS-F3 relative to binding in absence of sugar competitor [4]	Percentage of binding of DC-SIGN Fc fusion to GLPS-F3 relative to binding in absence of sugar competitor [5]	Percentage of binding of TLR4.Fc to GLPS-F3 relative to binding in absence of sugar competitor [6]	Compound	inhibition of interaction between GLPS-F3 and MMR.Fc [3]	inhibition of binding of Fc.DC-SIGN to GLPS-F3 [5]	inhibition of TLR4.Fc and GLPS-F3 interaction [6]	inhibition of interaction between Fc.Langerin and GLPS-F3 [1]
76 ± 1.9%	91 ± 8.5%	12 ± 2.0%	82 ± 6.5%	8 ± 1.8%	56 ± 1.9%	C[C@H](O)[C@@H](O)[C@@H](O)[C@H](O)C=O [Fuc, L-fucose]	88%	92%	44%	–
77 ± 3.2%	95 ± 5.1%	100 ± 4.2%	98 ± 7.3%	81 ± 1.4%	96 ± 4.0%	β-1,3-glucan [b-glucan]	–	–	–	–

Compound	Percentage of binding of Langerin Fc fusion to GLPS-F3 relative to binding in absence of sugar competitor [1]	Percentage of binding of CLEC-2 Fc fusion to GLPS-F3 relative to binding in absence of sugar competitor [2]	Percentage of binding of MMR.Fc to GLPS-F3 relative to binding in absence of sugar competitor [3]	Percentage of binding of CLEC-6 Fc fusion to GLPS-F3 relative to binding in absence of sugar competitor [4]	Percentage of binding of DC-SIGN Fc fusion to GLPS-F3 relative to binding in absence of sugar competitor [5]	Percentage of binding of TLR4.Fc to GLPS-F3 relative to binding in absence of sugar competitor [6]	inhibition of interaction between GLPS-F3 and MMR.Fc [3]	inhibition of binding of Fc.DC-SIGN to GLPS-F3 [5]	inhibition of TLR4.Fc and GLPS-F3 interaction [6]	inhibition of interaction between Fc.Langerin and GLPS-F3 [1]
mannan	5 ± 0.9%	88 ± 6.3%	2 ± 0.5%	75 ± 0.8%	2 ± 0.5%	28 ± 6.3%	98%	98%	72%	95%
